{
  "source": "BindingDB's records for doi:10.1021/jm025550h",
  "about": "(Abbott Laboratories, 2002)",
  "key": {"[1]": {"assay": "Effective concentration in vitro against rabbit urethra Alpha-1A adrenergic receptor"}, "[2]": {"assay": "Effective concentration in vitro against rabbit urethra Alpha-1 adrenergic receptor"}},
  "data": [
    {"smiles": "CCS(=O)(=O)Nc1cccc(Cc2cnc[nH]2)c1", "note": "[ABT-866]", "values": [
      {"measurement": "EC50", "setting": "[1]", "result": 600, "unit": "nM"}
    ]},
    {"smiles": "COc1ccc(OC)c(C(O)CN)c1", "note": "(stereo not drawn)", "values": [
      {"measurement": "EC50", "setting": "[2]", "result": 7.1, "unit": "µM"}
    ]},
    {"smiles": "CC(N)C(O)c1ccccc1", "note": "[(1R, 2S)-2-Amino-1-phenyl-propan-1-ol]", "values": [
      {"measurement": "EC50", "setting": "[2]", "result": 230, "unit": "µM"}
    ]}
  ]
}
